Assay results reported in ChEMBL document CHEMBL1201862, “PubChem BioAssay data set” (2004).
The source made the active and inactive calls.

Tests used:
[1] = Vero E6 cell cytotoxicity, dose response, cytotoxicity control for non-replicating M. tuberculosis project, secondary assay (AID 492998); type: functional, VeroE6; conditions: Vero C1008
[2] = HepG2 cell cytotoxicity, dose response, cytotoxicity control for non-replicating M. tuberculosis project (AID 489018); type: functional; conditions: Mycobacterium tuberculosis
[3] = THP-1 cell cytotoxicity, dose response, cytotoxicity control for non-replicating M. tuberculosis project (AID 489025); type: functional
Vero = assay: cells; type: functional; conditions: Chlorocebus sabaeus
Large T antigen = Large T antigen (Simian virus 40, UniProt P03070); type: functional, Betapolyomavirus macacae;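 note: Confirmatory-stage PubChem screen for compounds that inhibit SV40 T antigen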
Large T antigen, sequence (P03070 whole entry): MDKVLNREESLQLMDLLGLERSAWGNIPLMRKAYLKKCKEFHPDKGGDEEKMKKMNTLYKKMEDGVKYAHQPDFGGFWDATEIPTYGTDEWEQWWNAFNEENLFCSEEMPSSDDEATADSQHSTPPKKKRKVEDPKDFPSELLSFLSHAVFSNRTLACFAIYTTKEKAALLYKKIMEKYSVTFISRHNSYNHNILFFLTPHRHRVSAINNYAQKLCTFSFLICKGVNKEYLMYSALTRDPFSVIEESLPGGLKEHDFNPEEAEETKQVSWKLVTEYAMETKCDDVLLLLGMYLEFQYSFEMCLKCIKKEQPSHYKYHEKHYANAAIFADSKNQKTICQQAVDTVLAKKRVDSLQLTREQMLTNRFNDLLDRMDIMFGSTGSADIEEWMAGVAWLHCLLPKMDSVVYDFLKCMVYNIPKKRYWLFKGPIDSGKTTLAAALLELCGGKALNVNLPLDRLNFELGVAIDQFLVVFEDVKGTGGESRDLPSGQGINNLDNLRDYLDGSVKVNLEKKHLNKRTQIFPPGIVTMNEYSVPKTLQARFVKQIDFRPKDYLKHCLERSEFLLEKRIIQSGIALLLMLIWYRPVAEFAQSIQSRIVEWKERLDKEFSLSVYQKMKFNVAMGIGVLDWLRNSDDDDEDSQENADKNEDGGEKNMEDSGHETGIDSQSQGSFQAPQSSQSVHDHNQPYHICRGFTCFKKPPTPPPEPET

[4] = molecular target: DNA dC->dU-editing enzyme APOBEC-3G (Homo sapiens, UniProt Q9HC16); type: functional;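 note: Dose-response counterscreen measuring inhibition of APOBEC3G DNA deaminase activity, run while confirming APOBEC3A inhibitors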
DNA dC->dU-editing enzyme APOBEC-3G, sequence (Q9HC16 whole entry): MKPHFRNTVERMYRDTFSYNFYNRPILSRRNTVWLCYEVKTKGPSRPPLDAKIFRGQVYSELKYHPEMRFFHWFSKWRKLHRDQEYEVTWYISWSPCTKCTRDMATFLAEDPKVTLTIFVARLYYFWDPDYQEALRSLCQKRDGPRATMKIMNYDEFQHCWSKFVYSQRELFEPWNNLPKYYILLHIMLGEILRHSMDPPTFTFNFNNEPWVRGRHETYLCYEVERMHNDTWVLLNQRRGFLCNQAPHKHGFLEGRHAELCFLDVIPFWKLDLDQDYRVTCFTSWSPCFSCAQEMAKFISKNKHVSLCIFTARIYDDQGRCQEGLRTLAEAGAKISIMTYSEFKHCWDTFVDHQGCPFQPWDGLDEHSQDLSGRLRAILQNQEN

[5] = molecular target: DNA dC->dU-editing enzyme APOBEC-3A (Homo sapiens, UniProt P31941); assay: Dose Response confirmation of small molecule APOBEC3A DNA Deaminase Inhibitors via a fluorescence-based single-stranded DNA deaminase assay. [Related pubchem assays (depositor defined):AID493011, AID493024]; type: functional
DNA dC->dU-editing enzyme APOBEC-3A, sequence (P31941 whole entry): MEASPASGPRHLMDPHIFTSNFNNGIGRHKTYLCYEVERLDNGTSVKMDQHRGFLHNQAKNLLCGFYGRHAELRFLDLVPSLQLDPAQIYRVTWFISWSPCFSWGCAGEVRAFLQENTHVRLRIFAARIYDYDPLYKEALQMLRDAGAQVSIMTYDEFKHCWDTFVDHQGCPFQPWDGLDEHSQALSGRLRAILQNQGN

Cytochrome P450 2D6 [6] = molecular target: T1, Cytochrome P450 2D6 (Homo sapiens, UniProt P10635);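 note: CYP2D6 member of a cytochrome P450 panel assay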
T1 sequence (P10635 whole entry): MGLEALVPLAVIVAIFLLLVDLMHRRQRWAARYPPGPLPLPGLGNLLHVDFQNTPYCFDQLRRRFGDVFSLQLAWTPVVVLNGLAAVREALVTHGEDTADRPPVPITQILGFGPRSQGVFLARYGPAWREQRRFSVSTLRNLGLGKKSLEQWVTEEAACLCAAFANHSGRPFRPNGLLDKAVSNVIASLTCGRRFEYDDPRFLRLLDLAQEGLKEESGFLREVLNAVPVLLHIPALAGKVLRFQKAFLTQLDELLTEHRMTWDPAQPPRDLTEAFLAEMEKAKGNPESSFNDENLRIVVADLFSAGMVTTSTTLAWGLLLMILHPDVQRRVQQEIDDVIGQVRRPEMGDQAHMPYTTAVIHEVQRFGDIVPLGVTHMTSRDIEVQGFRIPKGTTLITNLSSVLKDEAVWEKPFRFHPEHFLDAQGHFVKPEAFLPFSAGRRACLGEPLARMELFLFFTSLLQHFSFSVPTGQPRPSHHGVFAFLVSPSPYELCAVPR

[7] = decrease of insulin promoter-GFP reporter – imaging, high-content screening, mouse beta cells (AID 1628); type: functional; conditions: MIN6
[8] = Trypanosoma cruzi growth suppression in host cells – NIH3T3 host cells, beta-gal luminescence, confirmation (AID 2044); type: functional, cell-based;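 note: intracellular parasites grown in NIH/3T3 mouse fibroblasts as host cells; luminescent beta-galactosidase reporter signal from transgenic T. cruzi replicating inside host cells; inhibitors lower the luminescence signal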
[9] = NIH3T3 cell viability loss – ATP luminescence, mouse fibroblasts, counter-screen, dose response (AID 2010); type: functional, cell-based;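 note: cells exposed to compound for about 90 hours before reading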
[10] = MIN6 cell viability loss – mouse insulinoma, cytotoxicity control, dose response (AID 2122); type: functional;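 note: confirmatory high-throughput counterscreen run to flag cytotoxic compounds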
Cytochrome P450 2C9 = Cytochrome P450 2C9 (Homo sapiens, UniProt P11712)
Cytochrome P450 2C9, sequence (P11712 whole entry): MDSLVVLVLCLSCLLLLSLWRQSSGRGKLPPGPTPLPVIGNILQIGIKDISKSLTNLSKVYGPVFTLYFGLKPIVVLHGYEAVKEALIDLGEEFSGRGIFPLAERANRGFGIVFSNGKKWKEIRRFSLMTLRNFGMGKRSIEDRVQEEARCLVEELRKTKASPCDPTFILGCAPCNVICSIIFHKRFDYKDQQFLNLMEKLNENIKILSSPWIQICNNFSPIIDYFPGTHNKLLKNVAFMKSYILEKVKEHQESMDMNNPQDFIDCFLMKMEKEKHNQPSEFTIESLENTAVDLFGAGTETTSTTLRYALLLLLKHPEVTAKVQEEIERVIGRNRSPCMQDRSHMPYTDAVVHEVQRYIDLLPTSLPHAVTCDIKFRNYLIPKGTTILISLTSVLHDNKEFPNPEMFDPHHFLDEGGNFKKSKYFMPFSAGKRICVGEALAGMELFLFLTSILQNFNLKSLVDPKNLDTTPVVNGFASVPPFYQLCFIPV

Cytochrome P450 2C19 = Cytochrome P450 2C19 (Homo sapiens, UniProt P33261); assay: Cytochrome panel assay with activity outcomes. Panel member name: p450-cyp2c19 Compounds with AC50 equal or less than 10 uM are considered active; type: functional
Cytochrome P450 2C19, sequence (P33261 whole entry): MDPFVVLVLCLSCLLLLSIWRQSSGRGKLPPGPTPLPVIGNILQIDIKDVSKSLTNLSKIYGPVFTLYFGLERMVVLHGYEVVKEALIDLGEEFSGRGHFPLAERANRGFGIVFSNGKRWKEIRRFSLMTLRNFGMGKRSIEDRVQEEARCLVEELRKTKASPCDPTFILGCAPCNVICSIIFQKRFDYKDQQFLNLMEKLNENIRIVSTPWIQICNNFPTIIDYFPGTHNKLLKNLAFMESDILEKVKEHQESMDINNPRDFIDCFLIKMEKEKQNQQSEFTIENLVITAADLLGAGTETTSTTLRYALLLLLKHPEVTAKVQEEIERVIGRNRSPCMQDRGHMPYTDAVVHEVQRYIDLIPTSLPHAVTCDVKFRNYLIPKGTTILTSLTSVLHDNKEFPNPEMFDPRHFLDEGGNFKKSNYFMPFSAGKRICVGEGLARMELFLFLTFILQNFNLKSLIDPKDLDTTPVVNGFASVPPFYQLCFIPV

Cytochrome P450 2D6 [11] = molecular target: T1, Cytochrome P450 2D6; remark: listed apart in the source
[12] = molecular target: T2, Sentrin-specific protease 1 (Homo sapiens, UniProt Q9P0U3); assay: SENP1 catalytic domain blockers, concentration series – biochemical, kinetic FRET, dose response (AID 651697); type: functional; conditions: read-out: IC50_Mean
T2 sequence (Q9P0U3 whole entry): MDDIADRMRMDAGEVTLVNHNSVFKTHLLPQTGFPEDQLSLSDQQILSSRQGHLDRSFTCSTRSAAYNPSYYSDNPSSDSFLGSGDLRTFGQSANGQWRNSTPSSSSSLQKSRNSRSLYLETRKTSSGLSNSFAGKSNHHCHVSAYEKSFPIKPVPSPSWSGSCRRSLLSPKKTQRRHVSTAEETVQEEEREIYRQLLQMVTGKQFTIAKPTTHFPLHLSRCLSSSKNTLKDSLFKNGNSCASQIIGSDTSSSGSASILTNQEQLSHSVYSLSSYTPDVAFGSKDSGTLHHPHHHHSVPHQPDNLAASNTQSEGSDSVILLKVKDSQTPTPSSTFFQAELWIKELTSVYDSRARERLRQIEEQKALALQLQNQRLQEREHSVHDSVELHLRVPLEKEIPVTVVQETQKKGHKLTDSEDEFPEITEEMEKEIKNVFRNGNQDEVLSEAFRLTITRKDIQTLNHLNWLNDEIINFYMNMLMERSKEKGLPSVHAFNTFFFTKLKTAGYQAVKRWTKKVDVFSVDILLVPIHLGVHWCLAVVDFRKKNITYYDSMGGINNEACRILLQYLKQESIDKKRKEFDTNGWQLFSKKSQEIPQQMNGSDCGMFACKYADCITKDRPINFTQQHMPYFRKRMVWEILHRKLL

[13] = molecular target: T3, Rac GTPase-activating protein 1 (Homo sapiens, UniProt Q9H0H5); assay: blockers of MgcRacGAP-driven Rac1 GTP hydrolysis – biochemical, ADP Hunter fluorescence, primary and confirmatory, confirmation (AID 624330); type: functional
T3 sequence (Q9H0H5 whole entry): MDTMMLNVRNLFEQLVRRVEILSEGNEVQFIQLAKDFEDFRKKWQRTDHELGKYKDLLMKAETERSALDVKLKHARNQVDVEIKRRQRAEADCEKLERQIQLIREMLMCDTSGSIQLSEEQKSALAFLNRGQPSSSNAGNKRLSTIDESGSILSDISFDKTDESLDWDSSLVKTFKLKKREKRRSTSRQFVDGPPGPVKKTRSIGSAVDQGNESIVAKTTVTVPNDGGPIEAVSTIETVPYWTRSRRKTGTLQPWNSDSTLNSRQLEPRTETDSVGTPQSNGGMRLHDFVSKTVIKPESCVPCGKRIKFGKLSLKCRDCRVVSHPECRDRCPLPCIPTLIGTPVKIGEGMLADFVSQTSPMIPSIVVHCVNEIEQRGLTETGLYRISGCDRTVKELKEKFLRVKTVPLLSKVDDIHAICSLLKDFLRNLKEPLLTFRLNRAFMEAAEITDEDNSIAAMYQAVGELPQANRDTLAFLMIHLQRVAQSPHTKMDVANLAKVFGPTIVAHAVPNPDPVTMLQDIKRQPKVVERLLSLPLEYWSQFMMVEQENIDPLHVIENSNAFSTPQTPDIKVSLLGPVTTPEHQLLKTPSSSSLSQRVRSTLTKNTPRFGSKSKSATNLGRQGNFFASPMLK

[14] = molecular target: T2, Sentrin-specific protease 1; assay: Dose response confirmation of small molecule inhibitors of the catalytic domain of the SUMO protease, SENP1 in a FRET assay.; type: functional; conditions: read-out: IC50_Mean
[15] = viability of PTEN-deleted HCT116 cells – cell-based, HCT116 PTEN knockout, dose response (AID 1047); type: functional;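 note: HCT116 colon tumor cells with PTEN knocked out; cells exposed to compound for 60 hours before readout; potency for loss of cell viability measured by luminescence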
[16] = viability of HCT116 lacking mutant beta-catenin – cell-based, human colon tumor, dose response (AID 1045); type: functional;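 note: HCT116 colon tumor cells with beta catenin knocked out; cells exposed to compound for 60 hours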
Streptococcus = assay: GAS UMAA2166 growth inhibition – luminescence, BacTiterGlo, counter-screen for streptokinase expression inhibitor project, dose response (AID 1915); type: functional, organism-based;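 note: potency for reduction of bacterial viability or growth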
Protein RecA = molecular target: T4, Protein RecA (Mycobacterium tuberculosis, UniProt P9WHJ3); assay: Fluorescence Cell-Free Homogeneous Dose Retest to Identify Inhibitors of RecA-Intein Splicing Activity. [Related pubchem assays (depositor defined):AID2097, AID2223, AID489010, AID492950]; type: functional
T4 sequence (P9WHJ3 whole entry): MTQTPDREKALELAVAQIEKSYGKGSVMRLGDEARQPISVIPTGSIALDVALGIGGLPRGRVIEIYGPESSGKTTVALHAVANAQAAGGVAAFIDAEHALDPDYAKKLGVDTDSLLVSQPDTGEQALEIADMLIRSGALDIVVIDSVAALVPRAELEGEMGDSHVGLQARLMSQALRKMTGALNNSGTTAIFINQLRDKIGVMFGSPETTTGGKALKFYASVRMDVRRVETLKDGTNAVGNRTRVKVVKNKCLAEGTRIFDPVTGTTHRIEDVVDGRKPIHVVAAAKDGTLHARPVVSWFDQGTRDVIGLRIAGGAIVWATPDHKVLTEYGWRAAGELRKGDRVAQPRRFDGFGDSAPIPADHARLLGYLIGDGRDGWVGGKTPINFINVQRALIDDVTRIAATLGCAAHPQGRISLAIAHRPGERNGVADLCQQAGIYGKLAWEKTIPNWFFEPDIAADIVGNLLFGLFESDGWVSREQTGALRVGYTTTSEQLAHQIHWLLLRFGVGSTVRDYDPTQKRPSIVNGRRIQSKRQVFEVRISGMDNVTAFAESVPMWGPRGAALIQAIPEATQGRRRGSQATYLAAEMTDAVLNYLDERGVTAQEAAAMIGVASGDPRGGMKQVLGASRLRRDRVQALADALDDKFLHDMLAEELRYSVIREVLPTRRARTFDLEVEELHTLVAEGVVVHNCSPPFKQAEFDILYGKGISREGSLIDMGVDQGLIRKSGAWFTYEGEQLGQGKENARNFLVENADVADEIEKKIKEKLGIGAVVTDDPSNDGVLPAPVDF

[17] = molecular target: T5, Replicative DNA helicase DnaB (Mycobacterium tuberculosis, UniProt P9WMR3); assay: DnaB intein splicing inhibitors, dose response, biochemical, cell-free fluorescence (AID 449749); type: functional
T5 sequence (P9WMR3 whole entry): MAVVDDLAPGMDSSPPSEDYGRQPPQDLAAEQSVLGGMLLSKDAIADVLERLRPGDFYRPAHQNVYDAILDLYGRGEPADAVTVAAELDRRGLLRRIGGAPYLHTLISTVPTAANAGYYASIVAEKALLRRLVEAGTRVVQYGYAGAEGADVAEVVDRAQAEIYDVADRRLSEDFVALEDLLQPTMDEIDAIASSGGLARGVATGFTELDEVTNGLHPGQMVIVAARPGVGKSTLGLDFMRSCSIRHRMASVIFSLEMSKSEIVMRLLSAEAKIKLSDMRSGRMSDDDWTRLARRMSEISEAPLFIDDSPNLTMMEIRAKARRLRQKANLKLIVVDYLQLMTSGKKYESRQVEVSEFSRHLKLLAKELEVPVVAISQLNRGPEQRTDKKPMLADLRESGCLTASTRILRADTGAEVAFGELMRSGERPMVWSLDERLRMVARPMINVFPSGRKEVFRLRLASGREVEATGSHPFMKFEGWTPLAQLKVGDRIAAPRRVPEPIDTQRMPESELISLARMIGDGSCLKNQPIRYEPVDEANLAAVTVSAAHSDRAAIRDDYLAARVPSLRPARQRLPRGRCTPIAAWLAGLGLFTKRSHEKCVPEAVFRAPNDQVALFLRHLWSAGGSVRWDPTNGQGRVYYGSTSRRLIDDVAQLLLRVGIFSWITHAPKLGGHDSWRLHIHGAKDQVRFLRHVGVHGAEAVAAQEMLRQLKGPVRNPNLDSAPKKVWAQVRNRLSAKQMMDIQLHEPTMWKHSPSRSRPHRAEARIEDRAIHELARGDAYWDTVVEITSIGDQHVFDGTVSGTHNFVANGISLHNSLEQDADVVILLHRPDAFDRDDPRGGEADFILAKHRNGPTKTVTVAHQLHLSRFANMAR

[18] = system: Streptococcus sp. 'group A'; assay: Streptococcus pyogenes SK(-)GAS viability under kanamycin – luminescence, BacTiterGlo, confirmation, counter-screen for streptokinase expression inhibitor project, dose response (AID 1900); type: functional, organism-based
Streptokinase A = molecular target: T6, Streptokinase A (Streptococcus pyogenes serotype M1, UniProt P10520); assay: viability-normalized secreted streptokinase activity reduction – plasminogen activation absorbance, OD405, dose response (AID 1914); type: functional, Streptococcus pyogenes M1 GAS;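 note: secreted streptokinase activity via plasminogen activation per viability signal from cell pellet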
T6 sequence (P10520 whole entry): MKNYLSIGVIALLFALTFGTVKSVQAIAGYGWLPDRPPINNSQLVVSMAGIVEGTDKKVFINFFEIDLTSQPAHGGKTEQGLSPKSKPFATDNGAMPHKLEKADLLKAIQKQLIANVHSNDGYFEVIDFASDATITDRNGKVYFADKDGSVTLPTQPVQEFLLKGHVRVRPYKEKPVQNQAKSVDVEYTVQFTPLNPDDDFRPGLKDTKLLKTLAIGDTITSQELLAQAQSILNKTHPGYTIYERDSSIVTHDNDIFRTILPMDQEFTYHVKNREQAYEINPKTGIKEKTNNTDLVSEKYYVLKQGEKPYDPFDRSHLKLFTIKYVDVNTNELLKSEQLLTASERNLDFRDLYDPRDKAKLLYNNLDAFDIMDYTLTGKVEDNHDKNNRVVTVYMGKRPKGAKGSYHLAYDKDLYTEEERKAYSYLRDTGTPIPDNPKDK

[19] = molecular target: G-protein coupled receptor 55 (Homo sapiens, UniProt Q9Y2T6); assay: selective activators of receptor GPR55 – imaging, U2OS cells, beta-arrestin-GFP redistribution, primary screen (AID 1961); type: functional
G-protein coupled receptor 55, sequence (Q9Y2T6 whole entry): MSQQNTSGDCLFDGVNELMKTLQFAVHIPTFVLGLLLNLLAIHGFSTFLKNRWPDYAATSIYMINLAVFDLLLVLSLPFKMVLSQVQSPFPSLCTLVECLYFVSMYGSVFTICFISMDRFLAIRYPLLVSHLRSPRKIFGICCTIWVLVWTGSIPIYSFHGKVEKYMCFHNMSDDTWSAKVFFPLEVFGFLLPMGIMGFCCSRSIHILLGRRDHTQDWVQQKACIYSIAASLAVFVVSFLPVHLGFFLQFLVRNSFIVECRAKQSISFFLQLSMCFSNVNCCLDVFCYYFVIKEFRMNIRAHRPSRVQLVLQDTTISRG

CC/C(=C\c1oc2cc3ccccc3cc2[n+]1CC)Nc1ccccc1
CC50 [1]: > 20 µM (active) | CC50 [2]: > 20 µM (active) | CC50 [3]: 16 µM (active) | CC50 (Vero): 18.7 µM (active)

COc1ccc(NCN2C(=O)C3C4C=CC(C4)C3C2=O)cc1 (stereo unspecified)
IC50 (Large T antigen): 23.2 µM (active)

CCN1C(NCc2ccc(OC)cc2)=N[C@@H](c2ccccc2)C(C(=O)OC)=C1C
IC50 [4]: 5.66 µM (active) | IC50 [5]: 4.07 µM (active)

Cc1ccc(NC(=O)CSc2nnc(-c3ccncc3)o2)cc1
AC50 (Cytochrome P450 2D6 [6]): inconclusive

CCC(C)C(=O)Nc1nc(C)c(-c2csc(Nc3ccc(Cl)cc3)n2)s1 (stereo unspecified)
IC50 [7]: 2.48 µM (active) | EC50 [8]: 1.75 µM (active) | EC50 [9]: > 60 µM (not active) | IC50 [10]: 3.05 µM (active)

C=CCC(C#Cc1ccccc1)[N+](C)(C)CC=C (stereo unspecified)
IC50 [7]: 8.7 µM (active) | IC50 [10]: 10.7 µM (inactive)

C[N+](C)(C)CCN(Cc1ccc(Cl)cc1)c1ccccn1.[I-]
IC50 [4]: 2.01 µM (active) | AC50 (Cytochrome P450 2C9): inconclusive | AC50 (Cytochrome P450 2C19): inconclusive | AC50 (Cytochrome P450 2D6 [11]): 0.251 µM (inconclusive) | IC50 [5]: 2.05 µM (active)

CCn1c(C)nc2cc(S(=O)(=O)Nc3ccc(C)cc3)ccc21
IC50 [4]: 4.4 µM (active) | IC50 [5]: 4.42 µM (active)

CCOc1cc(/C=C2\N=C3CCCCCN3C2=O)ccc1O
IC50 [12]: 9.57 µM (active) | IC50 [13]: 39.9 µM (active) | IC50 (Large T antigen): 16.9 µM (active) | IC50 [14]: 7.67 µM (active)

CC(=O)Nc1ccc(S(=O)(=O)Nc2nc3ccccc3nc2Nc2ccc(O)cc2)cc1
IC50 (Large T antigen): 9.57 µM (active)

CCC(C)NCC(=O)Nc1ccc(-c2nc3cc(NC(=O)CNC(C)CC)ccc3o2)cc1 (stereo unspecified)
IC50 [7]: 2.17 µM (active) | EC50 [15]: 4.19 µM (active) | EC50 [16]: 2.98 µM (active) | IC50 [10]: 1.66 µM (active)

CC1C(=O)C(C)C(c2cc(Cl)ccc2O)NC1c1cc(Cl)ccc1O (stereo unspecified)
EC50 (Streptococcus): 11.5 µM (active) | EC50 (Protein RecA): 8.24 µM (active) | AC50 [17]: 4.77 µM (active) | EC50 [18]: 1.4 µM (active) | EC50 (Streptokinase A): > 150 µM (not active) | EC50 [19]: > 32 µM (inactive)
